Drawing on patent publication US11648254B2 (Kumquat Biosciences Inc., priority 2021, dated 2023), this text covers IC50 for 17 molecules.

Where two headings read alike, the source gives them in different places.

For assay [1], the target named is SOS1 (Homo sapiens (Human), UniProt Q07889). Briefly: Ras-SOS interaction assay (HTRF). In kind it is biochemical. (In general: TR-FRET usually uses a lanthanide donor and a delayed reading to cut background.)
Assay [2] relates to MIA PaCa-2 cells (K-Ras G12C). Briefly: Ras-SOS cellular growth inhibition assay (CellTiter-Glo, 3D). In kind it is cell-based. Particulars: Homo sapiens. A digest of the protocol: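 Growth read by CellTiter-Glo luminescence about 5 days after dosing with 3-fold dilutions (9 points), added one day post-seeding. Cells: MIA PaCa-2, 3D culture on ultra-low-attachment surface, medium DMEM/Ham's F12 plus 10% FCS and 2.5% horse serum; IC50 by four-parameter fit.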
A general note: Cellular ATP, detected with luciferase, serves as a proxy for viable cell number.

The test system of assay [3] is NCI-H1975 cells (EGFR T790M L858R). Briefly: EGFR-SOS cellular inhibition assay (CellTiter-Glo, 3D). Format: cell-based. The note with it: Homo sapiens.
Setting [4] is: K-RasG13D utilized, read-out: IC50 inhibition of SOS.
[5] abbreviates: K-RasG13D, read-out: IC50 value against SOS1.
[6] abbreviates: MIA PaCa-2, 120 h, MIA PaCa-2, 3D proliferation, about 5 days, read-out: Bio-Cell-Prolif-3D (MiaPaca2 IC50).
[7] abbreviates: MIA PaCa-2, MIA PaCa-2, read-out: IC50 in inhibiting MIA PaCa-2 cell growth.
Where [8] appears, read: 120 h, NCI-H1975, 3D proliferation, about 5 days, read-out: Bio-Cell-Prolif-3D (H1975 IC50).
[9] abbreviates: NCI-H1975, EGFR T790M L858R, read-out: IC50 in inhibiting growth of NCI-H1975 cell line.

Chain of SOS1 (Q07889 564-1049): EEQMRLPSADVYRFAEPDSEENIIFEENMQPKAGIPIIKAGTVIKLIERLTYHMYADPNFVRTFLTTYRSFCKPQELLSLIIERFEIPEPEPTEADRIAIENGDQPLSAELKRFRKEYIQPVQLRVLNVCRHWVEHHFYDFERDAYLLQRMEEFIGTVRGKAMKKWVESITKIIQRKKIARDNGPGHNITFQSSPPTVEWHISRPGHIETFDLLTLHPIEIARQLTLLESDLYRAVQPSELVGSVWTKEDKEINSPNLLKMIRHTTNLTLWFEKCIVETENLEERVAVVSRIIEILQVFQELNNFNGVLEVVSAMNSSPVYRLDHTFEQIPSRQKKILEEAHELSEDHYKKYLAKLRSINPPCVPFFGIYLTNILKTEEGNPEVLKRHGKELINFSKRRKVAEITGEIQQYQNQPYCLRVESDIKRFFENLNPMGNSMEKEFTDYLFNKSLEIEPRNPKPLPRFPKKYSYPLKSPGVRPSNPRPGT

In the case of `CCN1CCC(c2cc3c(N[C@H](C)c4cccc(C(F)(F)F)c4F)ncnc3nc2OC)CC1` [Compound 199, (R)-6-(1-ethylpiperidin-4-yl)-N-(1-(2-fluoro-3-(trifluoromethyl)phenyl)ethyl)-7-methoxypyrido[2,3-d]pyrimidin-4-amine], the IC50 in assay [1] (setting [4]) was < 0.1 µM; in assay [1] (setting [5]), < 0.05 µM; in assay [2] (setting [6]), ≤ 1 µM; in assay [2] (setting [7]), < 0.5 µM; in assay [3] (setting [8]), ≤ 1 µM; in assay [3] (setting [9]), < 0.5 µM.

For the molecule `COc1nc2nc(OCC3CN(C)C3)nc(N[C@H](C)c3cccc(C(F)F)c3F)c2cc1C1(C#N)CC1` [Compound 203, (R)-1-(4-((1-(3-(difluoromethyl)-2-fluorophenyl)ethyl)amino)-7-methoxy-2-((1-methylazetidin-3-yl)methoxy)pyrido[2,3-d]pyrimidin-6-yl)cyclopropane-1-carbonitrile], the IC50 was < 0.1 µM in assay [1] (setting [4]), < 0.05 µM in assay [1] (setting [5]), 1 to 10 µM in assay [2] (setting [6]) and ≤ 1 µM in assay [3] (setting [8]).

On to `COc1nc2ncnc(N[C@H](C)c3cccc(C(F)(F)CO)c3F)c2cc1N1CCN(C(C)C)CC1` [Compound 204, (R)-2,2-difluoro-2-(2-fluoro-3-(1-((6-(4-isopropylpiperazin-1-yl)-7-methoxypyrido[2,3-d]pyrimidin-4-yl)amino)ethyl)phenyl)ethan-1-ol], for which the IC50 was < 0.1 µM in assay [1] (setting [4]); < 0.05 µM in assay [1] (setting [5]); ≤ 1 µM in assay [2] (setting [6]); < 0.5 µM in assay [2] (setting [7]); ≤ 1 µM in assay [3] (setting [8]); < 0.5 µM in assay [3] (setting [9]).

Consider `COc1nc2ncnc(N[C@H](C)c3cccc(C(F)(F)CO)c3)c2cc1N1CCN(C(C)C)CC1` [Compound 205, (R)-2,2-difluoro-2-(3-(1-((6-(4-isopropylpiperazin-1-yl)-7-methoxypyrido[2,3-d]pyrimidin-4-yl)amino)ethyl)phenyl)ethan-1-ol], for which the half-maximal inhibitory concentration (IC50) is < 0.1 µM in assay [1] (setting [4]); < 0.05 µM in assay [1] (setting [5]); ≤ 1 µM in assay [2] (setting [6]); < 0.5 µM in assay [2] (setting [7]); ≤ 1 µM in assay [3] (setting [8]); < 0.5 µM in assay [3] (setting [9]).

Regarding `COc1nc2nc(C)nc(N[C@H](C)c3cccc(C(F)(F)CO)c3F)c2cc1C1(C#N)CC1` [Compound 206, (R)-1-(4-((1-(3-(1,1-difluoro-2-hydroxyethyl)-2-fluorophenyl)ethyl)amino)-7-methoxy-2-methylpyrido[2,3-d]pyrimidin-6-yl)cyclopropane-1-carbonitrile], the IC50 in assay [1] (setting [4]) is < 0.1 µM; in assay [1] (setting [5]), < 0.05 µM; in assay [2] (setting [6]), ≤ 1 µM; in assay [2] (setting [7]), < 0.5 µM; in assay [3] (setting [8]), ≤ 1 µM; in assay [3] (setting [9]), < 0.5 µM.

As for `COc1nc2nc(C)nc(N[C@H](C)c3cccc(C(F)(F)C4(O)CC4)c3F)c2cc1N1CCN(C(C)C)CC1` [Compound 209, (R)-1-(difluoro(2-fluoro-3-(1-((6-(4-isopropylpiperazin-1-yl)-7-methoxy-2-methylpyrido[2,3-d]pyrimidin-4-yl)amino)ethyl)phenyl)methyl)cyclopropan-1-ol], the 50% inhibitory concentration (IC50) was < 0.1 µM in assay [1] (setting [4]); < 0.05 µM in assay [1] (setting [5]); ≤ 1 µM in assay [2] (setting [6]); < 0.5 µM in assay [2] (setting [7]); ≤ 1 µM in assay [3] (setting [8]); < 0.5 µM in assay [3] (setting [9]).

`COc1nc2nc(C)nc(N[C@H](C)c3cccc(C(F)(F)C4CCN(C)CC4)c3F)c2cc1C1(C#N)CC1` [Compound 210, (R)-1-(4-((1-(3-(difluoro(1-methylpiperidin-4-yl)methyl)-2-fluorophenyl)ethyl)amino)-7-methoxy-2-methylpyrido[2,3-d]pyrimidin-6-yl)cyclopropane-1-carbonitrile]: the IC50 in assay [1] (setting [4]) is < 0.1 µM; in assay [1] (setting [5]) it was < 0.05 µM; in assay [2] (setting [6]), ≤ 1 µM; in assay [2] (setting [7]) it was < 0.5 µM; in assay [3] (setting [8]), ≤ 1 µM; in assay [3] (setting [9]), < 0.5 µM.

Turning to `COc1nc2nc(C)nc(N[C@H](C)c3cccc(C(F)(F)C(C)(C)O)c3)c2cc1C1CCN(C(C)C)CC1` [Compound 212, (R)-1,1-difluoro-1-(3-(1-((6-(1-isopropylpiperidin-4-yl)-7-methoxy-2-methylpyrido[2,3-d]pyrimidin-4-yl)amino)ethyl)phenyl)-2-methylpropan-2-ol], the IC50 was < 0.1 µM in assay [1] (setting [4]); < 0.05 µM in assay [1] (setting [5]); ≤ 1 µM in assay [2] (setting [6]); < 0.5 µM in assay [2] (setting [7]); ≤ 1 µM in assay [3] (setting [8]); < 0.5 µM in assay [3] (setting [9]).

In the case of `COc1nc2nc(C)nc(N[C@H](C)c3cccc(C(F)(F)F)c3C)c2cc1C1(C#N)CC1` [Compound 213, (R)-1-(7-methoxy-2-methyl-4-((1-(2-methyl-3-(trifluoromethyl)phenyl)ethyl)amino)pyrido[2,3-d]pyrimidin-6-yl)cyclopropane-1-carbonitrile], the concentration for half-maximal inhibition (IC50) is < 0.1 µM in assay [1] (setting [4]), ≤ 1 µM in assay [2] (setting [6]) and ≤ 1 µM in assay [3] (setting [8]).

Take `COc1nc2nc(C)nc(N[C@H](C)c3cccc(C(C)(F)F)c3F)c2cc1N1CCS(=O)(=O)CC1` [Compound 215, (R)-4-(4-((1-(3-(1,1-difluoroethyl)-2-fluorophenyl)ethyl)amino)-7-methoxy-2-methylpyrido[2,3-d]pyrimidin-6-yl)thiomorpholine 1,1-dioxide]: the IC50 in assay [1] (setting [4]) is < 0.1 µM; in assay [1] (setting [5]), < 0.05 µM; in assay [2] (setting [6]), ≤ 1 µM; in assay [2] (setting [7]), < 0.5 µM; in assay [3] (setting [8]), ≤ 1 µM; in assay [3] (setting [9]) it was < 0.5 µM.

In the case of `COc1nc2nc(CCN3CCC3)nc(N[C@H](C)c3cccc(C(F)(F)F)c3F)c2cc1C1(C#N)CC1` [Compound 217, (R)-1-(2-(2-(azetidin-1-yl)ethyl)-4-((1-(2-fluoro-3-(trifluoromethyl)phenyl)ethyl)amino)-7-methoxypyrido[2,3-d]pyrimidin-6-yl)cyclopropane-1-carbonitrile], the 50% inhibitory concentration (IC50) in assay [1] (setting [5]) was < 0.05 µM; in assay [2] (setting [6]), ≤ 1 µM; in assay [3] (setting [8]), ≤ 1 µM; in assay [3] (setting [9]), < 0.5 µM.

Turning to `CC(C)N1CCC(c2cc3c(N[C@H](C)c4cccc(C(F)(F)C5CCN(C(C)C)CC5)c4F)ncnc3nc2Cl)CC1` [Compound 218, (R)-7-chloro-N-(1-(3-(difluoro(1-isopropylpiperidin-4-yl)methyl)-2-fluorophenyl)ethyl)-6-(1-isopropylpiperidin-4-yl)pyrido[2,3-d]pyrimidin-4-amine], the IC50 is < 0.1 µM in assay [1] (setting [4]); < 0.05 µM in assay [1] (setting [5]); ≤ 1 µM in assay [2] (setting [6]); < 0.5 µM in assay [2] (setting [7]); ≤ 1 µM in assay [3] (setting [8]); < 0.5 µM in assay [3] (setting [9]).

With `COc1nc2ncnc(N[C@H](C)c3cccc(C(F)(F)C4CCN(C(C)C)CC4)c3F)c2cc1C1CCN(C(C)C)CC1` [Compound 221, (R)-N-(1-(3-(difluoro(1-isopropylpiperidin-4-yl)methyl)-2-fluorophenyl)ethyl)-6-(1-isopropylpiperidin-4-yl)-7-methoxypyrido[2,3-d] pyrimidin-4-amine], the concentration for half-maximal inhibition (IC50) in assay [1] (setting [4]) was < 0.1 µM; in assay [1] (setting [5]), < 0.05 µM; in assay [2] (setting [6]), ≤ 1 µM; in assay [2] (setting [7]), < 0.5 µM; in assay [3] (setting [8]), ≤ 1 µM; in assay [3] (setting [9]), < 0.5 µM.

Turning to `Cc1nc(N[C@H](C)c2cccc(C(F)(F)C3CCN(C(C)C)CC3)c2F)c2cc(C3CCN(C(C)C)CC3)c(Cl)nc2n1` [Compound 222, (R)-7-chloro-N-(1-(3-(difluoro(1-isopropylpiperidin-4-yl)methyl)-2-fluorophenyl)ethyl)-6-(1-isopropylpiperidin-4-yl)-2-methylpyrido[2,3-d]pyrimidin-4-amine], the IC50 in assay [1] (setting [4]) is < 0.1 µM; in assay [1] (setting [5]), < 0.05 µM; in assay [2] (setting [6]), ≤ 1 µM; in assay [2] (setting [7]), < 0.5 µM; in assay [3] (setting [8]), ≤ 1 µM; in assay [3] (setting [9]), < 0.5 µM.

As for `Cc1nc(N[C@H](C)c2cccc(C(F)(F)C3CCN(C(C)C)CC3)c2F)c2cc(N3CCN(C(C)C)CC3)c(Cl)nc2n1` [Compound 223, (R)-7-chloro-N-(1-(3-(difluoro(1-isopropylpiperidin-4-yl)methyl)-2-fluorophenyl)ethyl)-6-(4-isopropylpiperazin-1-yl)-2-methylpyrido[2,3-d]pyrimidin-4-amine], the IC50 is < 0.1 µM in assay [1] (setting [4]); < 0.05 µM in assay [1] (setting [5]); ≤ 1 µM in assay [2] (setting [6]); < 0.5 µM in assay [2] (setting [7]); ≤ 1 µM in assay [3] (setting [8]); < 0.5 µM in assay [3] (setting [9]).

As to `CC(C)N1CCC(C(F)(F)c2cccc([C@@H](C)Nc3ncnc4nc(Cl)c(N5CCN(C(C)C)CC5)cc34)c2F)CC1` [Compound 224, (R)-7-chloro-N-(1-(3-(difluoro(1-isopropylpiperidin-4-yl)methyl)-2-fluorophenyl)ethyl)-6-(4-isopropylpiperazin-1-yl)pyrido[2,3-d]pyrimidin-4-amine], the IC50 was < 0.1 µM in assay [1] (setting [4]); < 0.05 µM in assay [1] (setting [5]); ≤ 1 µM in assay [2] (setting [6]); < 0.5 µM in assay [2] (setting [7]); ≤ 1 µM in assay [3] (setting [8]); < 0.5 µM in assay [3] (setting [9]).

Regarding `Cc1nc(N[C@H](C)c2cccc(C(F)F)c2F)c2cc(C3(C#N)CC3)c(O[C@@H]3CCN(C)C3)nc2n1` [Compound 226, 1-(4-(((R)-1-(3-(difluoromethyl)-2-fluorophenyl)ethyl)amino)-2-methyl-7-(((R)-1-methylpyrrolidin-3-yl)oxy)pyrido[2,3-d]pyrimidin-6-yl)cyclopropane-1-carbonitrile], the IC50 is < 0.1 µM in assay [1] (setting [4]), 1 to 10 µM in assay [2] (setting [6]), ≤ 1 µM in assay [3] (setting [8]) and < 0.5 µM in assay [3] (setting [9]).

Broadly, the IC50 is the concentration at which inhibition is half-maximal.
